According to US11932611B1, “3-(5-(3-fluorophenyl)-4-phenyl-4H-1,2,4-triazol-3-ylthio)propanoic acid as an antimicrobial compound” (KING FAISAL UNIVERSITY, priority 2023, dated 2024):

Tests used:
Format in all cases: cell-based
[1] = test system: Bacillus cereus; experiment: Agar plate disc-diffusion method, antibacterial inhibition zone; conditions: nutrient agar, 37° C., 48 h
Method: (§1) The agar plate disc-diffusion method was applied. […] The discs were then placed onto the surface of agar plates (nutrient agar for bacteria and Sabouraud's dextrose agar for fungi) seeded with the test organism. Each plate contained 15 mL of the agar medium, previously seeded with 0.2 mL of the broth culture of each organism pregrown for 18 h. The plates were incubated at 37° C. for 48 h, and 72 h for fungi. The inhibition zones was measured in mm. Discs impregnated with DMSO were used as a control, and its inhibition zone was subtracted from the tested compound actual inhibition zone.

[2] = test system: Escherichia coli; experiment: as above; conditions: nutrient agar, 37° C., 48 h
Method: as §1

[3] = test system: Pseudomonas aeruginosa; experiment: as above; conditions: nutrient agar, 37° C., 48 h
Method: as §1

[4] = test system: Staphylococcus aureus; experiment: as above; conditions: nutrient agar, 37° C., 48 h
Method: as §1

[5] = test system: Aspergillus flavus; experiment: Agar plate disc-diffusion method, antifungal inhibition zone; conditions: Sabouraud's dextrose agar, 72 h
Method: as §1

[6] = test system: Chrysosporium keratinophilum; experiment: as above; conditions: Sabouraud's dextrose agar, 72 h
Method: as §1

[7] = A = concentration of comp. = 10,000 μL
[8] = B = concentration of comp. = 30,000 μL
[9] = C = concentration of comp. = 50,000 μL

Which results are given for `O=C(O)CCSc1nnc(-c2cccc(F)c2)n1-c1ccccc1` [III, 3-(5-(3-fluorophenyl)-4-phenyl-4H-1,2,4-triazol-3-ylthio)propanoic acid]?
inhibition zone, Bacillus Cereus, A [1, 7]: 24 mm; inhibition zone, Bacillus Cereus, B [1, 8]: 27 mm; inhibition zone, Bacillus Cereus, C [1, 9]: 38 mm; inhibition zone, Escherichia coli, A [2, 7]: 25 mm; inhibition zone, Escherichia coli, B [2, 8]: 31 mm; inhibition zone, Escherichia coli, C [2, 9]: 45 mm; inhibition zone, Pseudomonas aeruginosa, A [3, 7]: 22 mm; inhibition zone, Pseudomonas aeruginosa, B [3, 8]: 24 mm; inhibition zone, Pseudomonas aeruginosa, C [3, 9]: 41 mm; inhibition zone, Staphylococcus aureus, A [4, 7]: 27 mm; inhibition zone, Staphylococcus aureus, B [4, 8]: 34 mm; inhibition zone, Staphylococcus aureus, C [4, 9]: 45 mm; inhibition zone, Aspergillus flavus, A [5, 7]: 19 mm; inhibition zone, Aspergillus flavus, B [5, 8]: 25 mm; inhibition zone, Aspergillus flavus, C [5, 9]: 36 mm; inhibition zone, Chrysosporium keratinophilum, A [6, 7]: 23 mm; inhibition zone, Chrysosporium keratinophilum, B [6, 8]: 26 mm; inhibition zone, Chrysosporium keratinophilum, C [6, 9]: 43 mm
